Holding throughout (assay): biochemical
Parameters in all cases: Eurofins KinaseProfiler full panel at Km ATP, residual kinase activity (%) relative to DMSO

For one assay, the target named is Flt4(h) (Homo sapiens, UniProt P35916). The gist of the method:
(§1)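 Radiometric kinase activity assays were run with ATP at Km and compounds at 10 µM, and remaining activity (%) was reported. A separate competitive binding screen measured DNA-tagged kinase displaced from immobilized active-site ligands by qPCR, giving percent kinase still bound at 10 µM compound in DMSO.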

Another assay addresses T1, PKCγ(h) (Homo sapiens, UniProt P05129).
T1 construct: gene PRKCG
In a few lines:
as §1

Another assay concerns the target T2, NDR2(h) (Homo sapiens, UniProt Q9Y2H1).
T2 construct: gene STK38L
The gist of the method:
as §1

In assay [1] the target is T3, PI3 Kinase (p110a(H1047R)/p85a)(m) (Mus musculus, UniProt P42337, H1047R).
T3 construct: gene Pik3ca
The gist of the method: as §1

Another assay addresses T4, EphB3(h) (Homo sapiens, UniProt P54753).
T4 sequence (P54753 1-998): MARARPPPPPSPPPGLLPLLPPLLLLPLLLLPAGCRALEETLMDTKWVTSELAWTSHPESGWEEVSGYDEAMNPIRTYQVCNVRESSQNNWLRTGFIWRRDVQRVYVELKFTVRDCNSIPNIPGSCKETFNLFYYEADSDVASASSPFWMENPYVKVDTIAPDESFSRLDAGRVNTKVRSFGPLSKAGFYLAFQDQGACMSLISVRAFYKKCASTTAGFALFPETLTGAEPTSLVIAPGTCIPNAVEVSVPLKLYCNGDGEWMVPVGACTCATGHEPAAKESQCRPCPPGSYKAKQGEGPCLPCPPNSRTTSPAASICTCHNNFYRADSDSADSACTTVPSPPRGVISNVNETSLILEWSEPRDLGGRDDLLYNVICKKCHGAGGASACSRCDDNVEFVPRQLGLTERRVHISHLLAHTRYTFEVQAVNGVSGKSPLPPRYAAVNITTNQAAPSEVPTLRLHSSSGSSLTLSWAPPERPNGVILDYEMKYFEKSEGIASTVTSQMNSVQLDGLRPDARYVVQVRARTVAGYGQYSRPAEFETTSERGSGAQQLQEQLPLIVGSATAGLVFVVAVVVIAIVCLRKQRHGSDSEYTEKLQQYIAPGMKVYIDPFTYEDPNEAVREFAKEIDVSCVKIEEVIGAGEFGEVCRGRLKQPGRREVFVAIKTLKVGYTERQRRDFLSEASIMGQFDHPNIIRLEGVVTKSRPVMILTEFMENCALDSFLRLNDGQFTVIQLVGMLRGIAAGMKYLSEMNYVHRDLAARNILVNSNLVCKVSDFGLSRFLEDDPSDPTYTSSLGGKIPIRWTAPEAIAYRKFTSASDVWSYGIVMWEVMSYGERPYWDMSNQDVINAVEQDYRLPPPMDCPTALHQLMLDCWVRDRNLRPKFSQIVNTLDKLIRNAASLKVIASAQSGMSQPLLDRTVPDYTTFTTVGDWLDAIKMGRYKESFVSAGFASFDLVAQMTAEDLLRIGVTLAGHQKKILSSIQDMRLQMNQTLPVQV
In a few lines:
as §1

A further assay addresses T5, BIKe(h) (Homo sapiens, UniProt Q9NSY1).
T5 construct: gene BMP2K
In a few lines:
as §1

The target of another assay is T6, Abl (Q252H) (h) (Homo sapiens, UniProt P00519, Q252H).
T6 construct: gene ABL1
The gist of the method:
as §1

The target in another assay is T7, MAPKAP-K2(h) (Homo sapiens, UniProt P49137).
T7 construct: gene MAPKAPK2
T7 sequence (P49137 whole entry): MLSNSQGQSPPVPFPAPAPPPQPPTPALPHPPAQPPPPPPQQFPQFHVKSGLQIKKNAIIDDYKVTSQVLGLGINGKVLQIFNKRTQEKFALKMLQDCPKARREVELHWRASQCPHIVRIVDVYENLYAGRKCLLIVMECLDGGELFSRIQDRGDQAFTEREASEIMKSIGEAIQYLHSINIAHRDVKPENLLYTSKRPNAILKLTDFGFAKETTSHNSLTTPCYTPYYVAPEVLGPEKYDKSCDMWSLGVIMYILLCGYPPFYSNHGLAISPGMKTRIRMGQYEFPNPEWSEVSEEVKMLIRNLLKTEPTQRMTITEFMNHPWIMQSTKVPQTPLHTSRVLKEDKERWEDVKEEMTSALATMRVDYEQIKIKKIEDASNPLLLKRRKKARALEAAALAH
In a few lines:
as §1

A further assay deals with Wee1(h) (Homo sapiens, UniProt P30291). In a few lines: as §1
Chain of Wee1(h) (P30291 whole entry): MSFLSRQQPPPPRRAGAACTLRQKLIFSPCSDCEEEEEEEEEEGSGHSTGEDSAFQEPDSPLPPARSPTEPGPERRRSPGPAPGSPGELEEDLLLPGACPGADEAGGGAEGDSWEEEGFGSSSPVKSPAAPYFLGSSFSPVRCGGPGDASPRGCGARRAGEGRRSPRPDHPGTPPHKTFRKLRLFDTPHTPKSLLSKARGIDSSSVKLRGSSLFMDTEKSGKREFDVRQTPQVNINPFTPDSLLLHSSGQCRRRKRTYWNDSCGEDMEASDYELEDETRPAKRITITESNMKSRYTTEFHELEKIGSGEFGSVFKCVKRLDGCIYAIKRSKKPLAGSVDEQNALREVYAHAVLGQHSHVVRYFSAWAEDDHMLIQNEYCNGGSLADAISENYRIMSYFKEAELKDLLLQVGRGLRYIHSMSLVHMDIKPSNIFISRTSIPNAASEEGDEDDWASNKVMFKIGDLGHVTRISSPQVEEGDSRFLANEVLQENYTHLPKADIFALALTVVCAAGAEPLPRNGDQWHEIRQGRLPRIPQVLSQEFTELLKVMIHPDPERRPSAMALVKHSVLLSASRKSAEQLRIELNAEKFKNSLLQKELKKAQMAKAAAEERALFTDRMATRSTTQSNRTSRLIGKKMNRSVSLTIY
[2] abbreviates: read-out: Residual activity (%) Spautin-1 5aa.
The mark [3] stands for this setting: read-out: Residual activity (%) 5as.
[4] abbreviates: read-out: Residual activity (%) 5at.
Setting [5] is: read-out: Residual activity (%) 5ay.

Like-named read-outs stand apart in the source and are kept apart here.

Remaining activity data for four compounds are collected here from paper PMC7827406, “Structure–Activity Relationship (SAR) Study of Spautin-1 to Entail the Discovery of Novel NEK4 Inhibitors” (International Journal of Molecular Sciences, 2021).

Chain of Flt4(h) (P35916 whole entry): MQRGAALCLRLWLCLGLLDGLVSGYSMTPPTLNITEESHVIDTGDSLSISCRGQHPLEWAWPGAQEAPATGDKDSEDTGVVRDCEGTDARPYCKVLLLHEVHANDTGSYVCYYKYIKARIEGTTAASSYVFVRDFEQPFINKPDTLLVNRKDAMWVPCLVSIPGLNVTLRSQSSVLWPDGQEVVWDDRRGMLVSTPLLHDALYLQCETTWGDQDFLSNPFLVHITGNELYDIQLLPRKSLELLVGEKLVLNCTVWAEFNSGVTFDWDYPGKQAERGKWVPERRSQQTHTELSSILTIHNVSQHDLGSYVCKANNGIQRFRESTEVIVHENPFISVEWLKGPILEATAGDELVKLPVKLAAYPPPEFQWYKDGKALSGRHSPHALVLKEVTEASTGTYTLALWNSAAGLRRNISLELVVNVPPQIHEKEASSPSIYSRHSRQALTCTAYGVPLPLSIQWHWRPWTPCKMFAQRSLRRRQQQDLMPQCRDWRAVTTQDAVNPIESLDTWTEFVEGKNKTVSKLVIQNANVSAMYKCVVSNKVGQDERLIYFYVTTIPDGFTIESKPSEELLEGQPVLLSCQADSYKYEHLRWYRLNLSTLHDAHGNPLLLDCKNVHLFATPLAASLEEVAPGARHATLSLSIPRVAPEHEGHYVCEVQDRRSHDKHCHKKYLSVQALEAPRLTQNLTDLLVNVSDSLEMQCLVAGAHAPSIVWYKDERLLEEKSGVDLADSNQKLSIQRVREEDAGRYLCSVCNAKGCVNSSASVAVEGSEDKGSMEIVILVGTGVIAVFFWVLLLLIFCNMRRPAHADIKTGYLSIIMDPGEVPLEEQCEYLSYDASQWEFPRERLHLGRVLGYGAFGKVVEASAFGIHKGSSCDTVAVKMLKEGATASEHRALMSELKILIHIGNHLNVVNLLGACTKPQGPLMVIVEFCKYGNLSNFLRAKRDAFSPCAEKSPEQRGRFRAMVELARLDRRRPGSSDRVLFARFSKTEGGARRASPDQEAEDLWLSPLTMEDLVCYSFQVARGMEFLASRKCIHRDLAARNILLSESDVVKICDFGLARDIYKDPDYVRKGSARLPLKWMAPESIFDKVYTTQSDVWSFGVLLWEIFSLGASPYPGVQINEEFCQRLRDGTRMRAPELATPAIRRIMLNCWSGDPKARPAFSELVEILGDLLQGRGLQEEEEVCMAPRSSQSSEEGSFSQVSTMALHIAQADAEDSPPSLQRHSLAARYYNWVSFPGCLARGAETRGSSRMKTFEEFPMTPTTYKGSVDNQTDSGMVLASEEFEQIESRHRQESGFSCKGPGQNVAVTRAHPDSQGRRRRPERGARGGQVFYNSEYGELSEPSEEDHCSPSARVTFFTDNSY
T5 sequence (Q9NSY1 whole entry): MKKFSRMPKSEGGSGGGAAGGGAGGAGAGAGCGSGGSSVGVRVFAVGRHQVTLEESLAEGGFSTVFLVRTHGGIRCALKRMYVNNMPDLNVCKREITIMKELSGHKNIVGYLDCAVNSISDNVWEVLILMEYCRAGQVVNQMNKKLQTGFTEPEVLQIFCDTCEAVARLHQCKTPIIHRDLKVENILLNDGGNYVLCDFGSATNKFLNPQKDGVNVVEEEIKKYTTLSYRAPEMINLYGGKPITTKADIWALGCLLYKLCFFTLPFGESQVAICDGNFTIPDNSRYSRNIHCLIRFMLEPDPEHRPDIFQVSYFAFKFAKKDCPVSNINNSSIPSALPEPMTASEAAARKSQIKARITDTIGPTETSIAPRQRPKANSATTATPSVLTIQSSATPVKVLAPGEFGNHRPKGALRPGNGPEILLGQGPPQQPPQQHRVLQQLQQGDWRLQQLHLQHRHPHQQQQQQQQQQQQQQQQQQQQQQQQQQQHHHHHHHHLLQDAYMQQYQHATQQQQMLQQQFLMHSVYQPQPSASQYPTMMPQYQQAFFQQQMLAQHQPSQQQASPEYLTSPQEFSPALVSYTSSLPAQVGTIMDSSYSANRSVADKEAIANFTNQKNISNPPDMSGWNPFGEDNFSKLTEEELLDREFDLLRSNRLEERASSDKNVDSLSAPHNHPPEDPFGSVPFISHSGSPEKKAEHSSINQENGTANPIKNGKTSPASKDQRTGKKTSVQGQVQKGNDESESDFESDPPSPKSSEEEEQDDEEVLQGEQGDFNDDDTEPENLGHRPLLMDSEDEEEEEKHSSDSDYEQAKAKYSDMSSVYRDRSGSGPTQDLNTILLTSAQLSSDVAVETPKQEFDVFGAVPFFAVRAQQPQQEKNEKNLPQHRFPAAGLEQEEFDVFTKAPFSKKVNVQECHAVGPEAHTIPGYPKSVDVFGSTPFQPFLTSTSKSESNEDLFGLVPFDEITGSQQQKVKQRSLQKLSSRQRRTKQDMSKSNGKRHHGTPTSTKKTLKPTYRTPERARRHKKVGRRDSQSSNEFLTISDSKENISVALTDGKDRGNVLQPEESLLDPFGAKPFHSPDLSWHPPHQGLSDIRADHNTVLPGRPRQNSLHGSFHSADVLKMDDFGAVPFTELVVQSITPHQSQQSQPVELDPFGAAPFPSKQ
T2 sequence (Q9Y2H1 whole entry): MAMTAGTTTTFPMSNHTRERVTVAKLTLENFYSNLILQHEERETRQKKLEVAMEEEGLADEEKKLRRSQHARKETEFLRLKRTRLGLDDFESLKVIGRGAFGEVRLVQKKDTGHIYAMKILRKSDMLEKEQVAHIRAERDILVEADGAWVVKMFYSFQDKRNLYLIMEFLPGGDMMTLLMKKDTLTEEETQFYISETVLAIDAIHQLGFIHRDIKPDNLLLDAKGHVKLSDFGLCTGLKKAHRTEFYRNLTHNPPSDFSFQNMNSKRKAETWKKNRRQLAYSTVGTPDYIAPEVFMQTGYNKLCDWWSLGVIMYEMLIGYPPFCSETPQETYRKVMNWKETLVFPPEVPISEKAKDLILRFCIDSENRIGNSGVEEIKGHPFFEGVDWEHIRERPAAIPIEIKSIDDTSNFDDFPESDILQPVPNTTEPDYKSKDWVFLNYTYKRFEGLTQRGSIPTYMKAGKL

Regarding `Fc1ccc(CNc2ncnc3ccc(F)cc23)cc1` [5aa, 6-Fluoro-N-(4-fluorobenzyl)-4-Quinazolinamine], the remaining activity at 10 µM is 92% on Flt4(h) (setting [2]); 86% at PKCγ(h) (setting [2]); 120% on NDR2(h) (setting [2]); 96% in [1] (setting [2]); 93% at EphB3(h) (setting [2]); 95% on BIKe(h) (setting [2]). Further, the remaining activity at 10 µM at Abl (Q252H) (h) (setting [2]) is 104%; on MAPKAP-K2(h) (setting [2]) it was 79%; at Wee1(h) (setting [2]), 109%.
Take `Fc1ccc(CCNc2ncnc3ccc(F)cc23)cc1` [5as, 6-Fluoro-N-[2-(4-Fluorophenyl)Ethyl]-4-Quinazolinamine]: the remaining activity at 10 µM on Flt4(h) (setting [3]) was 81%; at PKCγ(h) (setting [3]) it was 74%; on NDR2(h) (setting [3]) it was 99%; in assay [1] (setting [3]), 95%; on EphB3(h) (setting [3]), 79%; at BIKe(h) (setting [3]), 98%. For the same compound, the remaining activity at 10 µM on Abl (Q252H) (h) (setting [3]) is 104%; on MAPKAP-K2(h) (setting [3]), 85%; on Wee1(h) (setting [3]) it was 114%.
Turning to `Fc1ccc2ncnc(NCCc3ccc(Cl)cc3)c2c1` [5at, N-[2-(4-Chlorophenyl)Ethyl]-6-Fluoro-4-Quinazolinamine], the remaining activity at 10 µM on Flt4(h) (setting [4]) amounted to 90%; at PKCγ(h) (setting [4]) it was 72%; on NDR2(h) (setting [4]) it was 115%; in assay [1] (setting [4]), 94%; at EphB3(h) (setting [4]) it was 76%; at BIKe(h) (setting [4]), 88%. Further, the remaining activity at 10 µM at Abl (Q252H) (h) (setting [4]) was 88%; on MAPKAP-K2(h) (setting [4]), 97%; at Wee1(h) (setting [4]), 89%.
For `COc1ccc2ncnc(Nc3cccc(F)c3)c2c1` [5ay, N-(3-Fluorophenyl)-6-Methoxy-4-Quinazolinamine], the remaining activity at 10 µM at Flt4(h) (setting [5]) was 66%; on PKCγ(h) (setting [5]), 81%; on NDR2(h) (setting [5]), 103%; in assay [1] (setting [5]), 93%; on EphB3(h) (setting [5]) it was 84%; on BIKe(h) (setting [5]), 67%. Further, the remaining activity at 10 µM amounted to 80% at Abl (Q252H) (h) (setting [5]), 80% at MAPKAP-K2(h) (setting [5]) and 102% at Wee1(h) (setting [5]).
